Test results taken from US20180073018A1, “COMPOSITIONS AND METHODS FOR SPECIFIC REACTIVATION OF HIV LATENT RESERVOIR” (priority 2015, published 2018).

Legend:
HIV-1 LTR promoter [1] = experiment: HIV-1 EGFP reporter reactivation in latent CHME5 microglial cells; assay type: cell-based; conditions: dCas9-VPH stable CHME5, 500 nM, 4 d
Source text: Cells were infected with pMSCV-LTR-dCas9-VP64-puromycin and Lenti-MS2-p65-HSF1-hygromysin, selected for 10 days. The population cells were infected with Lenti-MS2-gRNAs-Zeosin and the fluorescent micrographs were taken at 1 day after infection (FIG. 5B). Cells were continuously cultured for 7 days, and selected with triple antibiotics (puromycin-hygromycin-Zeocin) for 3 days before flow cytometry (FIG. 5C).
FIG. 9A and FIG. 9B: TZM-bI cells were infected with dCas9-VPH and indicated msgRNA lentiviruses at 1 or 10 MOI and luciferase activity was measured at 2-21 days post-infection (dpi). FIG. 9C, FIG. 9D: indicated HIV-1 EGFP reporter T cell lines were infected with dCas9-VPH and indicated msgRNAs lentiviruses at 10 MOI and flow cytometric analysis for EGFP percentage (FIG. 9C) and individual intensity (FIG. 9D) was performed at 1 dpi. […]
(§1) FIG. 12A, FIG. 12B, FIG. 12C: The dCas9-VPH stable TZM-bI cells were treated with SAHA or infected with indicated msgRNAs lentivirus for 2-4 d before luminescence reporter assay (FIG. 12A) and CELLTITER-GLO® luminescent cell viability assay (FIG. 12B). […]
Cells were trypsinized (for CHME5) or collected (for suspension T cell lines), washed with PBS and fixed in 2% paraformaldehyde for 10 minutes at room temperature. Then, cells were washed twice with PBS and analyzed using a Guava EasyCyte Mini flow cytometer (Guava Technologies). […]

HIV-1 LTR promoter [2] = experiment: dCas9-VPH/msgRNA (or SAHA) reactivation of latent LTR-eLuc reporter in TZM-bI cells; assay type: cell-based
Protocol: Cells were plated in 96-well plate and the indicated MS2-gRNAs were cotransfected by Lipofectamine 3000 (FIG. 3A) or coinfected by lentiviruses (FIG. 3B, MOI=50) with pMSCV-LTR-dCas9-VP64-BFP plus pLV-MS2-p65-HSF1-GFP. Two days later, OneGlo luminescence assay was performed. The SIV MS2-gRNA-D was used as negative control. […] The gRNA-J has no effect due to 2 nucleotides mismatch to the LTR sequence from TZM-bI cells.
FIG. 8A, FIG. 8B, FIG. 8C, and FIG. 8D, depict the results of experiments of screening of MS2-mediated sgRNAs (msgRNAs) targeting the HIV-1 long terminal repeat (LTR) in the dCas9-synergistic activation mediator (SAM) system. FIG. 8A is a schematic illustration of SAM-VPH complex derived from dCas9-VP64 (V) and MS2-p65-HSF1 (PH) with msgRNAs. FIG. 8B is a graph showing similar activation of transfected EcoHIV-eLuc reporter by inducible (TRE) or constitutive (LTR) dCas9-VP64 expression in HEK293T cells. FIG. 8C is a graph showing similar reactivation of latent HIV-LTR-eLuc reporter in TZM-bI cells after either transient plasmid transfection by Lipofectamine 3000 or stable infection by lentivirus. […] The gRNA-J has no effect due to 2 nucleotides mismatch to the LTR sequence from TZM-bI cells. […]
FIG. 9A and FIG. 9B: TZM-bI cells were infected with dCas9-VPH and indicated msgRNA lentiviruses at 1 or 10 MOI and luciferase activity was measured at 2-21 days post-infection (dpi). […]
as §1
Experiments were conducted to compare reactivation of HIV-LTR luciferase reporter in TZM-BI cells induced by gRNA/dCas9-VP64/MS2-p65-HSF1/delivered by either transient plasmid transfection (FIG. 3A) or stable lentivirus infection (FIG. 3B). […] Two days later, OneGlo luminescence assay was performed. […]

## O=C(CCCCCCC(=O)Nc1ccccc1)NO [SAHA, suberoylanilide hydroxamic acid]
HIV-1 LTR promoter [1]
  HIV-1 provirus reactivation (EGFP): marginal increase
HIV-1 LTR promoter [2]; TZM-bI, 500 nM
  activation of LTR-eLuc reporter: did not activate
HIV-1 LTR promoter [2]; TZM-bI, 5,000 nM
  reactivation of LTR-eLuc reporter: 4 fold
